Three compounds from paper PMC10784557, “In silico and in vitro prediction of new synthesized N-heterocyclic compounds as anti-SARS-CoV-2” (Scientific Reports, 2024) can be followed below.

Values after ≈ are worked out from the molar mass of the structure shown.

Series [1] has as its system SARS-CoV-2 (hCoV-19/Egypt/NRC-03/2020). The experiment in a line: Inhibitory concentration 50 (IC50) determination, virus-induced cytopathic effect, crystal violet. The class given is cell-based. Conditions: Severe acute respiratory syndrome coronavirus 2, Vero C1008; Vero-E6 cells infected with hCoV-19/Egypt/NRC-03/2020, 72 h. Here is the method:
In 96-well tissue culture plates, 2.4 × 10^4 Vero-E6 cells were distributed in each well and incubated overnight at a humidified 37 °C incubator under 5%CO2 condition. The cell monolayers were then washed once with 1 × PBS and subjected to virus adsorption (hCoV-19/Egypt/NRC-03/2020 (Accession Number on GSAID: EPI_ISL_430820)) for 1 h at room temperature (RT). More details were provided in Supplementary Information.
3.4.Inhibitory concentration 50 (IC50) determination
In 96-well tissue culture plates, 2.4×10^4 Vero-E6 cells were distributed in each well and incubated overnight at a humidified 37°C incubator under 5%CO2 condition. The cell monolayers were then washed once with 1x PBS and subjected to virus adsorption (hCoV-19/Egypt/NRC-03/2020 (Accession Number on GSAID: EPI_ISL_430820)) for 1 h at room temperature (RT). The cell monolayers were further overlaid with 100μl of DMEM containing varying concentrations of the test compounds. Following incubation at 37°C in 5% CO2 incubator for 72 h, the cells were fixed with 100 μl of 4% paraformaldehyde for 20 min and stained with 0.1% crystal violet in distilled water for 15 min at RT. The crystal violet dye was then dissolved using 100 μl absolute methanol per well and the optical density of the color is measured at 570 nm using Anthos Zenyth 200rt plate reader (Anthos Labtec Instruments, Heerhugowaard, Netherlands). The IC50 of the compound is that required to reduce the virus -induced cytopathic effect (CPE) by 50%, relative to the virus control.

Series [2] can be described thus: in vitro. The note with it: African green monkey.

In series [1], `N=c1oc2ccccc2cc1-c1nnc(-c2cccnc2)o1` [Compound 5, 3-(5-(pyridin-3-yl)-1,3,4-oxadiazol-2-yl)-2H-chromen-2-imine] registered an IC50 of 55 µg/mL (≈ 189 µM). In series [2], this compound yielded a CC50 at 24 h of 312 µg/mL (≈ 1070 µM).

As for `C(=Nc1nnc(-c2cccnc2)s1)c1c[nH]c2ccccc12` [Compound 11, 1-(1H-indol-3-yl)-N-(5-(pyridin-3-yl)-1,3,4-thiadiazol-2-yl)methanimine], the IC50 in series [1] was 216 µg/mL (≈ 707 µM). In addition, in series [2], the CC50 at 24 h was 552 µg/mL (≈ 1810 µM).

Turning to `Clc1nc2ccccc2cc1C=Nc1nnc(-c2cccnc2)s1` [Compound 12, 1-(2-chloroquinolin-3-yl)-N-(5-(pyridin-3-yl)-1,3,4-thiadiazol-2-yl)methanimine], the IC50 in series [1] is 120 µg/mL (≈ 341 µM). This compound had a CC50 at 24 h in series [2] of 512 µg/mL (≈ 1450 µM).
